Source: article PMC6830213, “High-throughput structures of protein–ligand complexes at room temperature using serial femtosecond crystallography” (IUCrJ, 2019)

Assays:
[1] = biological target: T1, dehaloperoxidase B (DHP-B; DHP) (Amphitrite ornata, UniProt Q9NAV7); assay: SFX crystal structure, room temperature, […] A; assay type: binding; details: 3-5 min, distal heme pocket, not bound to iron
T1 construct: homodimer in the asymmetric unit

[2] = biological target: Dye-type peroxidase Aa from Streptomyces lividans (Streptomyces lividans); assay: crystal structure; serial femtosecond crystallography at room temperature, microcrystals on silicon fixed-target chips, SACLA beamline BL2 EH3; two monomers (homodimer) in the crystallographic asymmetric unit
[3] = biological target: the molecule itself; assay: as above

Oc1ccc(Cl)cc1Cl [2,4-dichlorophenol]
SFX crystal structure, room temperature, 1.85 A ([1]; crystals pH 6.0, soaked 5 mM, near-full occupancy in monomer B): DCP exhibited a binding site that was virtually identical to those previously observed

Brc1ccc2[nH]ccc2c1 [5-bromoindole]
SFX crystal structure, room temperature, 1.85 A ([1]; crystals pH 6.0, soaked 50 mM, lower occupancy in second monomer): the 5BR complex was consistent with a computationally hypothesized binding site

Dye-type peroxidase Aa from Streptomyces lividans (enzyme)
stoichiometry N [2]: 2

B1: Dehaloperoxidase B from Amphitrite ornata (enzyme)
chain: GFKQDIATLRGDLRTYAQDIFLAFLNKYPDEKRNFKNYVGKSDQELKSMAKFGDHTEKVFNLMMEVADRATDCVPLASDASTLVQMKQHSGLTTGNFEKLFVALVEYMRASGQSFDSQSWDRFGKNLVSALSSAGMK
notes: Dehaloperoxidase B (DHP-B), heme peroxidase from the marine annelid Amphitrite ornata; Heme protein; Crystallised with the small ligands DCP or 5BR soaked in; also called DHP-B; DHP; source: expressed and purified as described previously (McCombs, Moreno-Chicano et al., 2017)
stoichiometry N [3]: 2
